Data published in paper PMC12024154, “A Study of Antioxidant, Antihyperlipidemic, and Anti-Glycation Effects of Alkylsulfonic Acids with Quinobenzothiazinyl Substituents: In Vitro and In Silico Investigations” (Antioxidants, 2025).
Where “and” joins values, the source holds several entries; their conditions need not be identical. Identical values can stand only once. Marks after values point to notes of the source that are not given here.

Experiments:
pancreatic lipase = molecular target: T1, pancreatic lipase (Sus scrofa, UniProt P00591); assay: In vitro pancreatic lipase inhibition assay; format: biochemical; conditions: porcine pancreas powder, pNPB substrate, n = 3
T1 construct: The enzyme source utilized was porcine pancreas powder; from tissue; host or cells: porcine pancreas (powder)
T1 sequence (P00591 1-450): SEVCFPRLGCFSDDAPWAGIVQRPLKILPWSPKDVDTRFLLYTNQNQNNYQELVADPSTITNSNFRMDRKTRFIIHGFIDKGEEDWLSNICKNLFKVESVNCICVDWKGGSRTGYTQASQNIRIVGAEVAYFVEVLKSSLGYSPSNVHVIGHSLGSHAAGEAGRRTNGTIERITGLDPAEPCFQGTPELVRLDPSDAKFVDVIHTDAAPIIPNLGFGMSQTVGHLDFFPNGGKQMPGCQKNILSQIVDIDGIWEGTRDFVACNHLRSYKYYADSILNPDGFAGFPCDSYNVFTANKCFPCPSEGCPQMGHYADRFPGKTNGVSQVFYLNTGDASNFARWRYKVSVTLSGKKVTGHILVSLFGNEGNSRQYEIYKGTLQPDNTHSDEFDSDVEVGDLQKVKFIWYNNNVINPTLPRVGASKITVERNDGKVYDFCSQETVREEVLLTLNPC
Procedure: The pancreatic lipase inhibition assay is conducted following the method outlined by Ajayi et al. (2022) with minor modifications. The enzyme source utilized was porcine pancreas powder at a concentration of 0.1 mg·mL^−1 in Tris–HCl buffer, pH 8.0. In a 96-well plate, 50 μL of phosphate–buffer solution (pH 7.0), 50 μL of pNPB (500 μM), and 50 μL of test samples 5–12 with concentrations ranging from 0.0245 to 0.268 μM were pipetted and mixed thoroughly. Fifty microliters of pancreatic enzyme were added to the resultant mixture and incubated at room temperature for 30 min. The resulting yellow p-nitrophenol was measured spectrophotometrically at 405 nm. Control was conducted concurrently without the addition of a test sample. […] PL inhibition was determined using the following formula: PL inhibition (%) = [(Activity of control − activity of test)/activity of control] × 100. The IC50 is determined utilizing GraphPad 10 software (GraphPad Software, LLC, San Diego, CA, USA).

[1] = test system: differentiated 3T3-L1 adipocytes; assay: Intracellular ROS production (DCFH-DA, AAPH-stimulated); format: cell-based; conditions: 24 h treatment
Procedure: Differentiation of 3T3-L1 cells was performed within one week through culturing in MDI medium, which consisted of 0.5 mM 3-isobutyl-1-methylxanthine, 1 μM dexamethasone, and 1 μg/mL insulin, for 48 h in 10% FBS-DMEM. Subsequently, the cells were transferred to fresh 10% FBS and 90% DMEM supplemented with 1 μg/mL insulin.
On day 8 of differentiation, intracellular ROS levels in 3T3 L1 cells were assessed using the oxidation-sensitive fluorogenic probe 2′,7′-dichlorodihydrofluorescein-diacetate (DCFH-DA), following a method established by Forbes-Hernández et al., with minor modification. Post-differentiation, the cells were treated with the respective doses of the compounds for a period of 24 h. Following this, the cells underwent incubation with DCFH-DA (25 μM) at 37 °C for a duration of 30 min in the absence of light. Consequently, the cells were stimulated with 1 mM AAPH as a ROS initiator for a duration of 1 h. The density of light was measured using a spectrofluorometer with an excitation wavelength of 480 nm and an emission wavelength of 530 nm.

[2] = DPPH radical scavenging assay; conditions: average inhibition, concentration range 0.0245 to 0.268 μM, n = 3
Procedure: The DPPH (2,2-diphenyl-1-picrylhydrazyl) radical scavenging assay was conducted to evaluate the antioxidant activity of compounds 5–12 following the method outlined by Chong et al. with minor modifications. A 1 mL sample with a concentration range of 0.0245 to 0.268 μM was introduced to a 1 mL methanol solution of DPPH ([…]) and vortexed. Following a 20-min incubation at 25 °C, absorbance was assessed at 527 nm using a UV-vis spectrophotometer, with blank as reference. Ascorbic acid served as a positive control. The negative control consists of a setup without samples (ascorbic acid and synthetic compounds). The percentage of DPPH free radical inhibition was determined using Equation (1) provided below.
% of DPPH radical scavenging activity was calculated using the following equation:(1) AA%=100−[Abs sample−Abs blank100/Abs control] • Equation (1) where: • Abs control = absorbance of the control. • Abs sample = absorbance of the sample.

BSA-glucose = BSA-glucose antiglycation assay; design: species or system bovine; conditions: 7 days, 37 °C, pH 7.4, n = 3; read-out: BSA-glucose glycation IC50
Procedure: The BSA-glucose assay is conducted according to the methodology outlined by Mridula et al.. […] The reaction mixture was thoroughly mixed and incubated for 5 min. Following incubation, 0.5 mL of sodium azide was added to each tube. The tubes underwent incubation at 37 °C in the absence of light for a duration of seven days. Aminoguanidine is used as a positive control. Following a seven-day incubation period, the samples were analyzed with the Omega microplate reader (BMG LABTECH, Ortenberg, Germany), measuring fluorescence intensity at an excitation wavelength of 370 nm and an emission wavelength of 440 nm. The experiment was conducted in triplicate.

[3] = Chelating capacity (ferrozine) assay; conditions: 0.0245 to 0.268 μM
Procedure: Chelating capacity assay is conducted following the method outlined by Chong et al. with minor modifications. Samples of 0.1 mL with concentrations ranging from 0.0245 to 0.268 μM were combined with 0.5 mL of a […] and 0.2 mL of a 5 mM ferrozine solution. Then, a 10-min incubation at room temperature, absorbance was recorded at 562 nm using a blank solution in a 96-well plate reader. EDTA served as a positive control. The negative control consists of a sample devoid of any substances, including EDTA and synthetic compounds. The percentage of ferrous chelation was calculated using the Equation (1).

SMILES | IC50 (pancreatic lipase) | IC50 (BSA-glucose) [nM] | % ROS Generation ([1]; 0.02 μM) | % ROS Generation ([1]; 0.06 μM) | % ROS Generation ([1]; 0.1 μM) | % ROS Generation ([1]; 0.2 μM) | % ROS Generation ([1]; 0.25 μM) | DPPH mean inhibition [2] [%] | Chelating activity [3]
N=C(N)NN [aminoguanidine, reference compound] | – | 310 | – | – | – | – | – | – | –
O=S(=O)(O)CCCN1c2ccc(Cl)cc2Sc2cc3ccccc3nc21 [Compound 7, 3-(9-chloro[3,2-b]benzo[1,4]thiazin-6-yl)propane-1-sulfonic acid] | 890 nM | 4130 | 143.18 ± 10.65% and 143.18 ± 10.65 ^a % | 113.48 ± 10.27 ^a % | 33.27 ± 6.16 ^b % | 15.63 ± 2.74 ^b % | 14.96 ± 1.25% and 14.96 ± 1.25 ^b % | 8.47 | –
O=C(O)CN(CCN(CC(=O)O)CC(=O)O)CC(=O)O [EDTA] | – | – | – | – | – | – | – | – | increasing inhibitory action with increased concentration
O=C1O[C@H]([C@@H](O)CO)C(O)=C1O [ascorbic acid, reference compound] | – | – | – | – | – | – | – | 54.24 | –
O=S(=O)(O)CCCCN1c2ccc(F)cc2Sc2cc3ccccc3nc21 [Compound 10, 4-(9-fluoroquino[3,2-b]benzo[1,4]thiazin-6-yl)butane-1-sulfonic acid] | 477 nM | 2240 | 103.85 ± 1.17% and 103.85 ± 1.17 ^a % | 74.74 ± 2.90 ^b % | 69.81 ± 5.23 ^b % | 52.56 ± 4.14 ^c % | 47.16 ± 3.71% and 47.16 ± 3.71 ^c % | 6.21 | –
O=S(=O)(O)CCCCN1c2ccc(Cl)cc2Sc2cc3ccccc3nc21 [Compound 11, 4-(9-chloro[3,2-b]benzo[1,4]thiazin-6-yl)butane-1-sulfonic acid] | 870 nM | 1890 | 104.90 ± 5.3% and 104.90 ± 5.31 ^a % | 35.75 ± 11.03 ^c % | 46.64 ± 6.13 ^bc % | 75.96 ± 2.21 ^ab % | 57.18 ± 1.66% and 57.18 ± 1.66 ^bc % | 8.47 | –

Further compounds by falling IC50 (BSA-glucose), results first:

IC50 (pancreatic lipase) | IC50 (BSA-glucose) [nM] | SMILES | % ROS Generation ([1]; 0.02 μM) | % ROS Generation ([1]; 0.06 μM) | % ROS Generation ([1]; 0.1 μM) | % ROS Generation ([1]; 0.2 μM) | % ROS Generation ([1]; 0.25 μM) | DPPH mean inhibition [2] [%] | Chelating activity [3]
566 nM | 1800 | CSc1ccc2c(c1)Sc1cc3ccccc3nc1N2CCCCS(=O)(=O)O [Compound 12, 4-(9-methylthio[3,2-b]benzo[1,4]thiazin-6-yl)butane-1-sulfonic acid] | 119.82 ± 5.12% and 119.82 ± 5.12 ^a % | 102.85 ± 1.47 ^b % | 97.18 ± 2.61 ^b % | 80.38 ± 1.72 ^c % | 60.12 ± 1.74% and 60.12 ± 1.74 ^d % | 5.53 | –
1240 nM | 1570 | O=S(=O)(O)CCCN1c2ccc(F)cc2Sc2cc3ccccc3nc21 [Compound 6, 3-(9-fluoroquino[3,2-b]benzo[1,4]thiazin-6-yl)propane-1-sulfonic acid] | 137.15 ± 9.37 ^a % | 126.66 ± 2.43 ^a % | 88.31 ± 3.13 ^b % | 37.15 ± 9.37% and 69.68 ± 7.12 ^c % | 63.73 ± 1.04% and 63.73 ± 1.04 ^c % | 3.45 | –
670 nM and 477 nM | 1090 | O=S(=O)(O)CCCCN1c2ccccc2Sc2cc3ccccc3nc21 [Compound 9, 4-(quino[3,2-b]benzo[1,4]thiazin-6-yl)butane-1-sulfonic acid] | 169.62 ± 13.81% and 169.62 ± 13.81 ^a % | 151.45 ± 25.13 ^ab % | 151.54 ± 32.18 ^ab % | 61.36 ± 1.58 ^c % | 26.38 ± 1.73% and 26.38 ± 1.73 ^c % | 2.45 | –
1320 nM | 980 | CSc1ccc2c(c1)Sc1cc3ccccc3nc1N2CCCS(=O)(=O)O [Compound 8, 3-(9-methylthio[3,2-b]benzo[1,4]thiazin-6-yl)propane-1-sulfonic acid] | 149.62 ± 6.71% and 149.62 ± 6.71 ^a % | 101.04 ± 7.69 ^b % | 71.47 ± 2.98 ^c % | 62.94 ± 4.59 ^c % | 50.89 ± 2.85% and 50.89 ± 2.85 ^d % | 7.36 | –
1570 nM | 790 | O=S(=O)(O)CCCN1c2ccccc2Sc2cc3ccccc3nc21 [Compound 5, 3-(quino[3,2-b]benzo[1,4]thiazin-6-yl)propane-1-sulfonic acid] | 208.69 ± 13.07% and 208.69 ± 13.07 ^a % | 142.87 ± 15.43 ^b % | 76.83 ± 0.0 ^c % | 39.72 ± 6.30 ^c % | 39.24 ± 0.0 ^c % | 5.49 | –
